One experiment deals with Carbonic anhydrase 2 (Homo sapiens, UniProt P00918).
The target of the next experiment is Carbonic anhydrase 1 (Homo sapiens, UniProt P00915).
Carbonic anhydrase 1, sequence (P00915 whole entry): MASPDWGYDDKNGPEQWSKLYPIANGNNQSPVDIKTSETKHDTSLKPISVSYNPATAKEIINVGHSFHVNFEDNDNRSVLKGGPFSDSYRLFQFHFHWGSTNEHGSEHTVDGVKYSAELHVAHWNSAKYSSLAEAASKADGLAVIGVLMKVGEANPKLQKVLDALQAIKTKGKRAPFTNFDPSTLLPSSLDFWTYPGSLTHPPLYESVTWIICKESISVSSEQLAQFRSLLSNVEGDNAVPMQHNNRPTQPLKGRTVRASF

The Ki is the dissociation constant of the complex between target and ligand, obtained from inhibition or displacement. Read a high Ki as a looser hold on the target. Take `NS(=O)(=O)NC(=O)NS(=O)(=O)c1ccc(F)cc1`: the figures for the Ki on Carbonic anhydrase 2 and at Carbonic anhydrase 1 were 20 nM and 6 nM, respectively. As to `NS(=O)(=O)NS(=O)(=O)c1c(F)c(F)c(F)c(F)c1F`, the Ki on Carbonic anhydrase 2 was 10 nM; at Carbonic anhydrase 1, 3 nM. On to `C/C(=N/S(N)(=O)=O)c1ccc(N(C)C)cc1`, for which, at Carbonic anhydrase 2, affinity was put at a Ki of 20 nM. This counts as double-digit nanomolar.

`NS(=O)(=O)NS(=O)(=O)c1cccc(C(=O)O)c1`: the Ki stood at 10 nM on Carbonic anhydrase 2 and 6 nM on Carbonic anhydrase 1. For the compound `O=C(NS(=O)(=O)O)NS(=O)(=O)c1ccc(F)cc1`, the inhibition constant (Ki) at Carbonic anhydrase 2 was found to be 900 nM; at Carbonic anhydrase 1, 80 nM. For the compound `O=S(=O)(O)NS(=O)(=O)c1c(F)c(F)c(F)c(F)c1F` [(PENTAFLUOROPHENYL)SULFONYLSULFAMIC ACID], the inhibition constant Ki was determined as 1200 nM at Carbonic anhydrase 2 and 50 nM on Carbonic anhydrase 1.

The record behind these values is ChEMBL document CHEMBL1135997, “Nonaromatic sulfonamide group as an ideal anchor for potent human carbonic anhydrase inhibitors: role of hydrogen-bonding networks in ligand binding and drug design” (J Med Chem, 2002).
